This note sets out measurements from EP4471049A1 (Zealand Pharma A/S, priority 2023, dated 2024).

The IC50 is the concentration at which inhibition is half-maximal.

For data set [1], the system named is porcine pancreatin (P1625, Sigma Aldrich). The data set can be described thus: SIF: monobasic potassium phosphate, pH 6.8, with porcine pancreatin (10 g/L). Conditions: 37 °C, up to 4 hours.
Data set [2] deals with porcine pepsin (P7125, Sigma Aldrich). As to the kind of experiment: SGF: sodium chloride, HCl, pH 1.2, with porcine pepsin (3.2 g/L). To be noted: 37 °C, up to 4 hours.
Data set [3] deals with T1, human IL-23R endogenously expressed on DB cells (human, UniProt Q5VWK5 24-629).
T1 sequence (looked up): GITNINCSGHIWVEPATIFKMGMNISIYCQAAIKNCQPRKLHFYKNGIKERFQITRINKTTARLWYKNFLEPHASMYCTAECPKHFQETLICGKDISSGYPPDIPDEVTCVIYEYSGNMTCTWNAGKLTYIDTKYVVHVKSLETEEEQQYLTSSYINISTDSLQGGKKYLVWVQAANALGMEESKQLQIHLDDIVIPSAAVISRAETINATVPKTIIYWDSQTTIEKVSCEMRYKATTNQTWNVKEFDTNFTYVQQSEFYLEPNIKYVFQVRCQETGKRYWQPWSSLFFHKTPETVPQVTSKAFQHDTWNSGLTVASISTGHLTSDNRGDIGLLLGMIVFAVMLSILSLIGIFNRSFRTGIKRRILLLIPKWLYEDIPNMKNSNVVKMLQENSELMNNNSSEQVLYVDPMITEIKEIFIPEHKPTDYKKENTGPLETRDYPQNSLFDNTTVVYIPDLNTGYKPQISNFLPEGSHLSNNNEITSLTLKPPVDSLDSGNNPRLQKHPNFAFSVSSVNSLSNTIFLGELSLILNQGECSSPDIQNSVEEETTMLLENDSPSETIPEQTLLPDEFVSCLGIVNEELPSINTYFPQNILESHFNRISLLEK
The data set can be described thus: cell-based or functional assay.

Data set [4] addresses T2, Nluc-IL23R fusion protein (human, UniProt Q5VWK5 22-629).
T2 construct: range 22-629; expressed with a secretion signal in HEK293 cells; used as crude membrane preparation; also called hIL-23R; human IL-23R; not shown: Nanoluc protein from the expression plasmid N1371 (Promega), N-terminal of IL-23R
T2 sequence (looked up): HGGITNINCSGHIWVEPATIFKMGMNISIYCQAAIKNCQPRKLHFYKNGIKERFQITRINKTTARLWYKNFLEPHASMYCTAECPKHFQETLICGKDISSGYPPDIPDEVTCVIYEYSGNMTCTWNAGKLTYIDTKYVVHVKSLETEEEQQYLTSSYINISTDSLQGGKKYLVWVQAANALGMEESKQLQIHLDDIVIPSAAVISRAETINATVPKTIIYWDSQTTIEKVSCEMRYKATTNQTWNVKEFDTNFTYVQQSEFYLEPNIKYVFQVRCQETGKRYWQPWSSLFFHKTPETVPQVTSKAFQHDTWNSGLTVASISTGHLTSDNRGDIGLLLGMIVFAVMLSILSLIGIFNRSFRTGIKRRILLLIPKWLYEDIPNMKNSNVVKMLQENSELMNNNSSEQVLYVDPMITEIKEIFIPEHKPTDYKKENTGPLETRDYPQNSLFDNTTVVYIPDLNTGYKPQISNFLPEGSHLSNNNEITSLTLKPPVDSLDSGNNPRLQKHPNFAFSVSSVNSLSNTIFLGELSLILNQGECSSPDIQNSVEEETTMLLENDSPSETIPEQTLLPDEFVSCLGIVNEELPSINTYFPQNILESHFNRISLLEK
The data set can be described thus: BRET competition vs TAMRA-labelled peptide, Nluc-IL23R membranes. On the technique in general: In BRET a luciferase serves as donor, and the signal depends on an acceptor being close.

The target of data set [5] is T2, Nluc-IL23R fusion protein. Described as above. This is another data set of the same source.

Read-outs that look alike come from different tables or passages of the source. *1 amine or outer side, *2 acyl side, *3 side chain or, on linkers, in order; H or OH if unused. Bridges are numbered along the chain shown (N, C = ends). Primed or numbered codes have the meaning given here. [ ]: non-standard residue; d: D form. 4‑Aminomethyl‑phenylacetyl = 4-aminomethyl-phenylacetyl unit, its amine closes the lactam, O=C(Cc1ccc(CN[*:1])cc1)[*:2]; Q(pyrrolidin)″ = (2S)-2-amino-5-oxo-5-pyrrolidin-1-yl-pentanoic acid, O=C(CC[C@H](N[*:1])C(=O)[*:2])N1CCCC1; αMeAla(3-pyridyl) = C[C@](N)(Cc1cccnc1)C(=O)O; 2Nal = N[C@@H](Cc1ccc2ccccc2c1)C(=O)O; AEF = NCCOc1ccc(C[C@H](N)C(=O)O)cc1; αMeL = CC(C)C[C@](C)(N)C(=O)O; Iso‑Dab = not defined here; Dab = NCC[C@H](N)C(=O)O

Take “[4-Aminomethyl-phenylacetyl](1c)*SE(2c)W[Dab(Ac)][Dab](2c)[Y(2-aminoethoxy)][2-Nal][2-Me-Leu]E(1c)[Dab][3-(3-Pyridyl)-Ala]”: the not cleaved in data set [1] is recorded as 91% remaining after 4 h. Consider “[4-Aminomethyl-phenylacetyl](1c)*SE(2c)WQ[Dab](2c)[Y(2-aminoethoxy)][2-Nal][2-Me-Leu]E(1c)[Dab][3-(3-Pyridyl)-Ala][beta-hLeu]-[NH2]”, for which the not cleaved in data set [2] was 97% remaining after 4 h; in data set [1], 102% remaining after 4 h.

“[4-Aminomethyl-phenylacetyl](1c)*SE(2c)W[Cit][Dab](2c)[Y(2-aminoethoxy)][2-Nal][2-Me-Leu]E(1c)[Dab][3-(3-Pyridyl)-Ala]”: the not cleaved was found to be 99% remaining after 4 h in data set [2] and 91% remaining after 4 h in data set [1]. The molecule “[4-Aminomethyl-phenylacetyl](1c)*SE(2c)W[Q(2Me)][Dab](2c)[Y(2-aminoethoxy)][2-Nal][2-Me-Leu]E(1c)[Dab][3-(3-Pyridyl)-Ala]” registered a not cleaved in data set [1] of 94% remaining after 4 h. In the case of “[4-Aminomethyl-phenylacetyl](1c)*AE(2c)WQ[Dab](2c)[7-AzaTrp][2-Nal][Aib]E(1c)[Dab][3-(3-Pyridyl)-Ala]”, the not cleaved is reported as 98% remaining after 4 h in data set [2] and 92% remaining after 4 h in data set [1].

Turning to “[4-Aminomethyl-phenylacetyl](1c)*AE(2c)WQ[Dab](2c)[hPhe][2-Nal][Aib]E(1c)[Dab][3-(3-Pyridyl)-Ala]”, the not cleaved was 102% remaining after 4 h in data set [2] and 95% remaining after 4 h in data set [1].

For “[4-Aminomethyl-phenylacetyl](1c)*SE(2c)W[Orn][Dab](2c)[Y(2-aminoethoxy)][2-Nal][2-Me-Leu]E(1c)[Dab][3-(3-Pyridyl)-Ala]”, the not cleaved in data set [2] and in data set [1] was 110% remaining after 4 h each time.

In data set [1], “[4-Aminomethyl-phenylacetyl](1c)*SE(2c)WQ[Dab](2c)[Y(2-aminoethoxy)][2-Nal][2-Me-Leu]E(1c)[Dab][3-(3-Pyridyl)-Ala]-[NHMe]” had a not cleaved of 105% remaining after 4 h. Same read-out and setting: next, “[4-Aminomethyl-phenylacetyl](1c)*AE(2c)WQ[Dab](2c)[7-F-Trp][2-Nal][Aib]E(1c)[Dab][3-(3-Pyridyl)-Ala]”: 92% remaining after 4 h. As for “[4-Aminomethyl-phenylacetyl](1c)*AE(2c)WQ[Dab](2c)[Y(2-aminoethoxy)][2-Nal][2-Me-Leu]E(1c)[Dab][3-(3-Pyridyl)-Ala]-[NHMe]”, the not cleaved in data set [2] is recorded as 103% remaining after 4 h; in data set [1], 90% remaining after 4 h. “[4-Aminomethyl-phenylacetyl](1c)*SE(2c)WQ[Dab](2c)[Y(2-aminoethoxy)][2-Nal][2-Me-Leu]E(1c)[Dab][3-(3-Pyridyl)-Ala]-[NH2]” registered a not cleaved in data set [2] of 90% remaining after 4 h. The cleaved bond entry in data set [1] is “Dab12-3Pal13, major”. On to “[4-Aminomethyl-phenylacetyl](1c)*SE(2c)W[Q(Me)][Dab](2c)[Y(2-aminoethoxy)][2-Nal][2-Me-Leu]E(1c)[Dab][3-(3-Pyridyl)-Ala]”, for which the not cleaved amounted to 90% remaining after 4 h in data set [2] and 92% remaining after 4 h in data set [1]. For “[4-Aminomethyl-phenylacetyl](1c)*SE(2c)WQ[Dab](2c)[Y(2-aminoethoxy)][2-Nal][2-Me-Leu]E(1c)[THP][3-(3-Pyridyl)-Ala]” the same measures were 94% remaining after 4 h and 96% remaining after 4 h. Consider “[4-Aminomethyl-phenylacetyl](1c)*SE(2c)WQ[Dab](2c)[Y(2-aminoethoxy)][2-Nal][2-Me-Leu]E(1c)[hSer][3-(3-Pyridyl)-Ala]”, for which, in data set [2], the not cleaved stood at 103% remaining after 4 h. Same read-out and setting: the value for “[4-Aminomethyl-phenylacetyl](1c)*SE(2c)WQ[Dab](2c)[Y(2-aminoethoxy)][2-Nal][2-Me-Leu]E(1c)S[3-(3-Pyridyl)-Ala]” was 99% remaining after 4 h. “[4-Aminomethyl-phenylacetyl](1c)*SE(2c)WQ[Dab](2c)[Y(2-aminoethoxy)][2-Nal][2-Me-Leu]E(1c)[Nle][3-(3-Pyridyl)-Ala]” had a not cleaved in data set [2] of 90% remaining after 4 h. With “[4-Aminomethyl-phenylacetyl](1c)*SE(2c)WQ[Dab](2c)[Y(2-aminoethoxy)][2-Nal][2-Me-Leu]E(1c)[Dab][3-(3-Pyridyl)-Ala][Sar]-[NH2]”, the values for the not cleaved in data set [2] and in data set [1] were 95% remaining after 4 h and 105% remaining after 4 h, respectively. In the case of H-EC(4a)WLC(5a)YYRNC(5a)NC(4a)M-[NH2], in data set [2], the not cleaved worked out at 99% remaining after 4 h. On the same count and under the same terms, the value for “[4-Aminomethyl-phenylacetyl](1c)*FE(2c)WQ[Dab](2c)[Y(2-aminoethoxy)][2-Nal][2-Me-Leu]E(1c)[Dab][3-(3-Pyridyl)-Ala]” was 101% remaining after 4 h; that for “[4-Aminomethyl-phenylacetyl](1c)*SE(2c)WQ[Dab](2c)[Y(2-aminoethoxy)][2-Nal][2-Me-Leu]E(1c)[Dab][{d}3-(3-Pyridyl)-Ala]-[NH2]” was 105% remaining after 4 h. For the molecule “[4-Aminomethyl-phenylacetyl](1c)*SE(2c)WQ[Dab](2c)[Y(2-aminoethoxy)][2-Nal][2-Me-Leu]E(1c)[2-Me-Ser][3-(3-Pyridyl)-Ala]”, the not cleaved in data set [2] came to 96% remaining after 4 h. On to “[4-Aminomethyl-phenylacetyl](1c)*SE(2c)WQ[Dab](2c)[Y(2-aminoethoxy)][2-Nal][2-Me-Leu]E(1c)[Dab][2-Me-3-(3-Pyridyl)-Ala]-[NH2]”, for which the figures for the not cleaved in data set [2] and in data set [1] were 104% remaining after 4 h and 109% remaining after 4 h, respectively.

B1: I4 (isomer 3) (peptide)
peptide: H-ECWLCYYRNCNCM-NH2
modifications: linker 5-10, 2-12 via 1,3‑dithio‑propan‑2‑one
notes: compound from Heinis et al., 2020, synthesised for comparison
On to B1, for which, in data set [3], the “hIL-23 (pSTAT3) antagonist % inhibition” value was determined as 23%. For the same molecule, the “% displacement (hIL-23R binding)” value in data set [4] is 84%.

B2: Compound 15 (peptide)
peptide: [4‑Aminomethyl‑phenylacetyl]SEWQ[Dab][AEF][2Nal][αMeL]E[Iso‑Dab][αMeAla(3-pyridyl)]-NH2
modifications: lactam N-10, 3-6; reading uncertain; also: iso-Dab11 joined via side-chain amine
B2: in data set [3], the “hIL-23 (pSTAT3) antagonist % inhibition” value was determined as 97% and the “hIL-23 (pSTAT3) antagonist IC50” value worked out at 12 nM. In data set [5], the % displacement (hIL-23R binding) stood at 96%. The like results for [4‑Aminomethyl‑phenylacetyl]SEW[Q(pyrrolidin)″][Dab][AEF][2Nal][αMeL]E[Dab]-NH2 (lactam N-10, 3-6) [Ref 146] were, in that order, 98%, 42 nM and 105%. Take [4‑Aminomethyl‑phenylacetyl]SEWQ[Dab][AEF][2Nal][αMeL]E[Dab][H(Me)]-NH2 (lactam N-10, 3-6) [Compound 14]: in data set [3], the “hIL-23 (pSTAT3) antagonist % inhibition” value is 99% and the “hIL-23 (pSTAT3) antagonist IC50” value came to 7.2 nM. In data set [5], this molecule had a % displacement (hIL-23R binding) of 102% and an IC50 of 0.11 nM.
